We go through 34 compounds from patent US20070010671A1, “Novel quinazoline derivatives and methods of treatment related to the use thereof” (priority 2003, published 2007).

SMILES strings stand for the structures.

For one experiment, the target named is MCH receptor (Homo sapiens, UniProt Q99705). The experiment can be described thus: High throughput functional screening FLIPR/FDSS6000: inhibition of MCH-evoked intracellular Ca2+ changes. Format: cell-based. The settings on record: class by percent of control at 10^-7 M or IC50. A digest of the protocol: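 In a kinetic calcium-flux format, compounds were tested at various concentrations against 50 nM MCH. Fluo4-loaded cells expressing a constitutively active, non-endogenous receptor were imaged at 488/530 nm for 290 s after agonist addition.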
Take `CN(C)c1nc(N[C@H]2CC[C@@H](CNC(=S)Nc3ccc([N+](=O)[O-])cc3)CC2)nc2ccccc12` [compound 613, N-[(cis-4-{[4-(dimethylamino)quinazolin-2-yl]amino}cyclohexyl)methyl]-N′-(4-nitrophenyl)thiourea]: the class was 2 (Class 2: The value of percent of control at 10^−7 M was from 40% to 60% or the value of IC50 was from 50 nM to 200 nM.). Turning to `CN(C)c1nc(N[C@H]2CC[C@@H](CNC(=O)Nc3ccc(Cc4ccccc4)cc3)CC2)nc2ccccc12` [compound 540], the class is listed as 3 (Class 3: The value of percent of control at 10^−7 M was more than 60% or the value of IC50 was more than 200 nM.). For the compound `Cc1cc(C)c(NC(=S)N[C@H]2CC[C@@H](Nc3nc(N(C)C)c4ccccc4n3)CC2)c(C)c1` [compound 248, N-(cis-4-{[4-(dimethylamino)quinazolin-2-yl]amino}cyclohexyl)-N′-mesitylthiourea], the class is recorded as 1 (Class 1: The value of percent of control at 10^−7 M was less than 40% or the value of IC50 was less than 50 nM.). With `CN(C)c1nc(N[C@H]2CC[C@@H](NC(=S)Nc3cc(Cl)c(Cl)c(Cl)c3Cl)CC2)nc2ccccc12` [compound 243], the class is reported as 3 (Class 3: The value of percent of control at 10^−7 M was more than 60% or the value of IC50 was more than 200 nM.). On to `CCc1cccc(CC)c1NC(=O)NC[C@H]1CC[C@@H](Nc2nc(N(C)C)c3ccccc3n2)CC1` [compound 484, N-(2,6-diethylphenyl)-N′-[(cis-4-{[4-(dimethylamino)quinazolin-2-yl]amino}cyclohexyl)methyl]urea], for which the class is 1 (Class 1: The value of percent of control at 10^−7 M was less than 40% or the value of IC50 was less than 50 nM.).

For `CN(C)c1nc(N[C@H]2CC[C@@H](NC(=S)Nc3ccc(Br)cc3OC(F)(F)F)CC2)nc2ccccc12` [compound 372, N-[4-bromo-2-(trifluoromethoxy)phenyl]-N′-(cis-4-{[4-(dimethylamino)quinazolin-2-yl]amino}cyclohexyl)thiourea], the class is given as 1 (Class 1: The value of percent of control at 10^−7 M was less than 40% or the value of IC50 was less than 50 nM.).

Turning to `CCCCc1ccc(NC(=O)NC[C@H]2CC[C@@H](Nc3nc(N(C)C)c4ccccc4n3)CC2)c(C)c1` [compound 766], the class is reported as 3 (Class 3: The value of percent of control at 10^−7 M was more than 60% or the value of IC50 was more than 200 nM.). In the case of `CN(C)c1nc(N[C@H]2CC[C@@H](NC(=S)NCCCN3CCOCC3)CC2)nc2ccccc12` [compound 392], the class was 3 (Class 3: The value of percent of control at 10^−7 M was more than 60% or the value of IC50 was more than 200 nM.). For `CN(C)c1nc(N[C@H]2CC[C@@H](NC(=S)Nc3ccc(Oc4ccc([N+](=O)[O-])cc4)cc3)CC2)nc2ccccc12` [compound 317], the class is reported as 3 (Class 3: The value of percent of control at 10^−7 M was more than 60% or the value of IC50 was more than 200 nM.). As for `CN(C)c1nc(N[C@H]2CC[C@@H](NC(=S)Nc3ccc(C(=O)O)cc3)CC2)nc2ccccc12` [compound 313], the class was 3 (Class 3: The value of percent of control at 10^−7 M was more than 60% or the value of IC50 was more than 200 nM.). The same measure, in the same setting: the value for `CSc1ccccc1NC(=S)N[C@H]1CC[C@@H](Nc2nc(N(C)C)c3ccccc3n2)CC1` [compound 206] was 2 (Class 2: The value of percent of control at 10^−7 M was from 40% to 60% or the value of IC50 was from 50 nM to 200 nM.); that for `CC(C)c1ccccc1NC(=S)NC[C@H]1CC[C@@H](Nc2nc(N(C)C)c3ccccc3n2)CC1` [compound 680, N-[(cis-4-{[4-(dimethylamino)quinazolin-2-yl]amino}cyclohexyl)methyl]-N′-(2-isopropylphenyl)thiourea] was 2 (Class 2: The value of percent of control at 10^−7 M was from 40% to 60% or the value of IC50 was from 50 nM to 200 nM.). Regarding `Cc1cc(C)cc(NC(=S)NC[C@H]2CC[C@@H](Nc3nc(N(C)C)c4ccccc4n3)CC2)c1` [compound 684], the class is given as 3 (Class 3: The value of percent of control at 10^−7 M was more than 60% or the value of IC50 was more than 200 nM.). As to `CN(C)c1nc(N[C@H]2CC[C@@H](CNC(=O)Nc3ccc(-c4ccccc4)cc3)CC2)nc2ccccc12` [compound 562], the class is 3 (Class 3: The value of percent of control at 10^−7 M was more than 60% or the value of IC50 was more than 200 nM.). For `Cc1cccc(NC(=O)NC[C@H]2CC[C@@H](Nc3nc(N(C)C)c4ccccc4n3)CC2)c1C` [compound 428, N-[(cis-4-{[4-(dimethylamino)quinazolin-2-yl]amino}cyclohexyl)methyl]-N′-(2,3-dimethylphenyl)urea], the class is recorded as 1 (Class 1: The value of percent of control at 10^−7 M was less than 40% or the value of IC50 was less than 50 nM.). Regarding `COc1ccc(CNC(=O)NC[C@H]2CC[C@@H](Nc3nc(N(C)C)c4ccccc4n3)CC2)cc1` [compound 449], the class is given as 3 (Class 3: The value of percent of control at 10^−7 M was more than 60% or the value of IC50 was more than 200 nM.). For the compound `CN(C)c1nc(N[C@H]2CC[C@@H](CNC(=S)Nc3ccc4c(c3)CCC4)CC2)nc2ccccc12` [compound 747], the class is given as 3 (Class 3: The value of percent of control at 10^−7 M was more than 60% or the value of IC50 was more than 200 nM.). As for `C=C(C)CNC(=S)NC[C@H]1CC[C@@H](Nc2nc(N(C)C)c3ccccc3n2)CC1` [compound 608], the class is recorded as 3 (Class 3: The value of percent of control at 10^−7 M was more than 60% or the value of IC50 was more than 200 nM.).

Still in this experiment, the particulars now being: class by percent of control at 10^-7 M or by IC50; read-out: class.
`CN(C)c1nc(N[C@H]2CC[C@@H](CNC(=O)OCc3ccccc3Cl)CC2)nc2ccccc12` [compound 883]: the IC50 lay within 50 to 200 nM. For `CN(C)c1nc(N[C@H]2CC[C@@H](NC(=O)Nc3ccc4c(c3)OCO4)CC2)nc2ccccc12` [compound 120, N-1,3-benzodioxol-5-yl-N′-(cis-4-{[4-(dimethylamino)quinazolin-2-yl]amino}cyclohexyl)urea], the IC50 is below 50 nM. The same measure, in the same setting: the value for `CN(C)c1nc(N[C@H]2CC[C@@H](NC(=O)NCc3ccccc3)CC2)nc2ccccc12` [compound 9, N-benzyl-N′-(cis-4-{[4-(dimethylamino)quinazolin-2-yl]amino}cyclohexyl)urea] was 50 to 200 nM. Same read-out and setting: the value for `CN(C)c1nc(N[C@H]2CC[C@@H](NC(=O)Nc3cc(Cl)ccc3[N+](=O)[O-])CC2)nc2ccccc12` [compound 837] was above 200 nM; that for `CN(C)c1nc(N[C@H]2CC[C@@H](CNC(=S)Nc3ccc4nsnc4c3)CC2)nc2ccccc12` [compound 816] was above 200 nM; that for `CN(C)c1nc(N[C@H]2CC[C@@H](NC(=O)OCCOCc3ccccc3)CC2)nc2ccccc12` [compound 846] was 50 to 200 nM. For the compound `CN(C)c1nc(N[C@H]2CC[C@@H](NC(=O)Nc3ccc(Cl)c(Cl)c3)CC2)nc2ccccc12` [compound 20], the IC50 was above 200 nM. For the compound `Cc1ccc(CNC(=O)N[C@H]2CC[C@@H](Nc3nc(N(C)C)c4ccccc4n3)CC2)cc1` [compound 830, N-(cis-4-{[4-(dimethylamino)quinazolin-2-yl]amino}cyclohexyl)-N′-(4-methylbenzyl)urea], the IC50 was in the range of 50 to 200 nM.

Still in this experiment, the particulars now being: class by percent of control at 10^−7 M or by IC50; read-out: class.
Regarding `CN(C)c1nc(N[C@H]2CC[C@@H](C(=O)NCc3cccc(OC(F)(F)F)c3)CC2)nc2ccccc12` [Example 1186, cis-4-{[4-(dimethylamino)quinazolin-2-yl)amino}-N-[3-(trifluoromethoxy)benzyl]cyclohexanecarboxamide], the IC50 was below 50 nM. In the case of `COc1ccc(CN[C@@H]2CC[C@H](Nc3nc(N(C)C)c4ccccc4n3)C2)c(OC)c1` [Example 1044, N2-{(1S,3R)-3-[(2,4-dimethoxybenzyl)amino]cyclopentyl}-N4,N4-dimethylquinazoline-2,4-diamine], the IC50 was above 200 nM. Turning to `CN(C)c1nc(N[C@H]2CC[C@@H](NC(=O)C(O)c3ccc(F)c(F)c3)CC2)nc2ccccc12` (relative stereo) [Example 1108, 2-(3,4-difluorophenyl)-N-(cis-4-{[4-(dimethylamino)quinazolin-2-yl]amino}cyclohexyl)-2-hydroxyacetamide], the IC50 is 50 to 200 nM. Take `CN(C)c1nc(N[C@H]2CC[C@@H](NC(=O)[C@@H](O)c3ccccc3Cl)CC2)nc2ccccc12` [Example 1114, (2S)-2-(2-chlorophenyl)-N-(cis-4-{[4-(dimethylamino)quinazolin-2-yl]amino}cyclohexyl)-2-hydroxyacetamide]: the IC50 is below 50 nM. Same read-out and setting: the value for `CN(C)c1nc(N[C@H]2CC[C@@H](NC(=O)COc3cc(Cl)c(Cl)cc3Cl)CC2)nc2ccccc12` [Example 1077, N-(cis-4-{[4-(dimethylamino)quinazolin-2-yl]amino}cyclohexyl)-2-(2,4,5-trichlorophenoxy)acetamide] was 50 to 200 nM; that for `COc1ccc([C@H](C)NC(=O)[C@H]2CC[C@@H](Nc3nc(N(C)C)c4ccccc4n3)CC2)cc1` [Example 1190, cis-4-{[4-(dimethylamino)quinazolin-2-yl]amino}-N-[(1S)-1-(4-methoxyphenyl)ethyl]cyclohexanecarboxamide] was below 50 nM. The same measure, in the same setting: then `CN(C)c1nc(N[C@H]2CC[C@@H](CNC(=O)C(O)c3cccc(C(F)(F)F)c3)CC2)nc2ccccc12` (relative stereo) [Example 1104, N-[(cis-4-{[4-(dimethylamino)quinazolin-2-yl]amino}-cyclohexyl)-methyl]-2-hydroxy-2-[3-(trifluoromethyl)phenyl]-acetamide], with 50 to 200 nM.

On to `CN(C)c1nc(N[C@H]2CC[C@@H](C(=O)NCc3ccccc3)CC2)nc2cc(F)c(F)cc12` [Example 992, cis-N-benzyl-4-{[4-(dimethylamino)-6,7-difluoroquinazolin-2-yl]amino}cyclohexanecarboxamide], for which the IC50 lay within 50 to 200 nM.
